Laboratory results as given in paper PMC5218480 (PLoS ONE, 2017).

Test system: MV-4-11 cells
Test: Gene expression microarray analysis (Affymetrix PrimeView) and GSEA
Assay type: cell-based, human
Set-up: RFU PODN (11730768_x_at) / Fold change /veh PODN (11730768_x_at) / RFU LINC00158 (11744669_a_at) / Fold change /veh LINC00158 (11744669_a_at) / RFU DUSP10 (11751237_a_at) / Fold change /veh DUSP10 (11751237_a_at) / RFU ID3 (11757404_x_at) / Fold change /veh ID3 (11757404_x_at) / RFU PLEKHG5 (11737974_s_at) / Fold change /veh PLEKHG5 (11737974_s_at) / RFU LRRC4B (11730491_at) / Fold change /veh LRRC4B (11730491_at) / RFU GIMAP4 (11747438_a_at) / Fold change /veh GIMAP4 (11747438_a_at) / RFU KRT8 (11758183_x_at) / Fold change /veh KRT8 (11758183_x_at) / RFU CNN1 (11734310_a_at) / Fold change /veh CNN1 (11734310_a_at) / RFU VPS37D (11726825_at) / Fold change /veh VPS37D (11726825_at) / RFU C10orf10 (11716522_x_at) / Fold change /veh C10orf10 (11716522_x_at) / RFU KIR2DL2 /// KIR2DL4 /// KIR2DL5A /// KIR2DL5B /// KIR2DS1 /// KIR2DS2 /// KIR2DS3 /// KIR2DS4 /// KIR3DL3 /// KIR3DL3 /// KIR3DS1 (11738374_at) / Fold change /veh KIR2DL2 /// KIR2DL4 /// KIR2DL5A /// KIR2DL5B /// KIR2DS1 /// KIR2DS2 /// KIR2DS3 /// KIR2DS4 /// KIR3DL3 /// KIR3DL3 /// KIR3DS1 (11738374_at) / RFU C1QL1 (11718748_at) / Fold change /veh C1QL1 (11718748_at) / RFU TMPRSS4 (11747572_a_at) / Fold change /veh TMPRSS4 (11747572_a_at) / RFU HAMP (11756126_x_at) / Fold change /veh HAMP (11756126_x_at) / RFU RNFT2 (11725882_a_at) / Fold change /veh RNFT2 (11725882_a_at) / RFU NR4A2 (11747474_a_at) / Fold change /veh NR4A2 (11747474_a_at) / RFU ABCC12 (11746883_a_at) / Fold change /veh ABCC12 (11746883_a_at) / RFU TMEM136 (11760407_x_at) / Fold change /veh TMEM136 (11760407_x_at) / RFU CLDN22 /// WWC2 (11732394_at) / Fold change /veh CLDN22 /// WWC2 (11732394_at) / RFU HLA-DPB1 (11760878_x_at) / Fold change /veh HLA-DPB1 (11760878_x_at) / RFU SPINT1 (11716480_a_at) / Fold change /veh SPINT1 (11716480_a_at) / RFU GAP43 (11754022_s_at) / Fold change /veh GAP43 (11754022_s_at) / RFU A4GNT (11735810_at) / Fold change /veh A4GNT (11735810_at) / RFU PRB3 (11715151_x_at) / Fold change /veh PRB3 (11715151_x_at) / RFU TUBB4B (11761932_at) / Fold change /veh TUBB4B (11761932_at) / RFU CAPN14 (11732068_a_at) / Fold change /veh CAPN14 (11732068_a_at) / RFU TMCC2 (11721928_a_at) / Fold change /veh TMCC2 (11721928_a_at) / RFU IRGQ (11745062_a_at) / Fold change /veh IRGQ (11745062_a_at) / RFU FAM174B (11720279_a_at) / Fold change /veh FAM174B (11720279_a_at) / RFU TMPRSS4 (11748680_a_at) / Fold change /veh TMPRSS4 (11748680_a_at) / RFU FAM212B (11763350_a_at) / Fold change /veh FAM212B (11763350_a_at) / RFU PLEKHG5 (11743358_a_at) / Fold change /veh PLEKHG5 (11743358_a_at) / RFU ZSCAN30 (11745921_a_at) / Fold change /veh ZSCAN30 (11745921_a_at) / RFU CMKLR1 (11741424_a_at) / Fold change /veh CMKLR1 (11741424_a_at) / RFU LOC101060620 /// MAPK8IP1 (11723275_at) / Fold change /veh LOC101060620 /// MAPK8IP1 (11723275_at) / RFU SPTSSB (11747773_x_at) / Fold change /veh SPTSSB (11747773_x_at) / RFU PRSS12 (11739890_at) / Fold change /veh PRSS12 (11739890_at) / RFU BIN1 (11741810_x_at) / Fold change /veh BIN1 (11741810_x_at) / RFU WNT11 (11732464_a_at) / Fold change /veh WNT11 (11732464_a_at) / RFU C10orf10 (11716521_a_at) / Fold change /veh C10orf10 (11716521_a_at) / RFU C5orf56 (11738089_at) / Fold change /veh C5orf56 (11738089_at) / RFU CYB561 (11721691_x_at) / Fold change /veh CYB561 (11721691_x_at) / RFU ANKRD19P (11752326_a_at) / Fold change /veh ANKRD19P (11752326_a_at) / RFU OR2T12 /// OR2T33 /// OR2T8 (11738714_s_at) / Fold change /veh OR2T12 /// OR2T33 /// OR2T8 (11738714_s_at) / RFU VCAN (11748164_a_at) / Fold change /veh VCAN (11748164_a_at) / RFU JSRP1 (11732532_at) / Fold change /veh JSRP1 (11732532_at) / RFU KRTAP10-11 (11738290_x_at) / Fold change /veh KRTAP10-11 (11738290_x_at) / RFU MYO3A (11730013_a_at) / Fold change /veh MYO3A (11730013_a_at) / RFU EBF3 (11725865_a_at) / Fold change /veh EBF3 (11725865_a_at) / RFU CAMK2N1 (11719241_x_at) / Fold change /veh CAMK2N1 (11719241_x_at) / RFU C5orf56 (11738088_a_at) / Fold change /veh C5orf56 (11738088_a_at) / RFU OLFML3 (11715873_a_at) / Fold change /veh OLFML3 (11715873_a_at) / RFU LOC100653217 /// NTM (11731650_a_at) / Fold change /veh LOC100653217 /// NTM (11731650_a_at) / RFU MAPK11 (11762145_a_at) / Fold change /veh MAPK11 (11762145_a_at) / RFU FIZ1 (11724087_x_at) / Fold change /veh FIZ1 (11724087_x_at) / RFU OASL (11726364_x_at) / Fold change /veh OASL (11726364_x_at) / RFU SOX15 (11748057_x_at) / Fold change /veh SOX15 (11748057_x_at) / RFU CD79A (11719716_a_at) / Fold change /veh CD79A (11719716_a_at) / RFU HIST1H1D (11736915_at) / Fold change /veh HIST1H1D (11736915_at) / RFU CASKIN2 (11723855_a_at) / Fold change /veh CASKIN2 (11723855_a_at) / RFU LOC730098 (11760151_x_at) / Fold change /veh LOC730098 (11760151_x_at) / RFU OR4N2 (11742367_at) / Fold change /veh OR4N2 (11742367_at) / RFU PRRT2 (11749266_a_at) / Fold change /veh PRRT2 (11749266_a_at) / RFU SNX32 (11753110_a_at) / Fold change /veh SNX32 (11753110_a_at) / RFU CDHR5 (11726645_a_at) / Fold change /veh CDHR5 (11726645_a_at) / RFU RCAN1 (11760418_a_at) / Fold change /veh RCAN1 (11760418_a_at) / RFU FAM167A (11723789_a_at) / Fold change /veh FAM167A (11723789_a_at) / RFU FAM26E (11764081_at) / Fold change /veh FAM26E (11764081_at) / RFU ISYNA1 (11749810_s_at) / Fold change /veh ISYNA1 (11749810_s_at) / RFU ACY1 (11761880_at) / Fold change /veh ACY1 (11761880_at) / RFU 11764098_at / Fold change /veh 11764098_at / RFU SAMD14 (11745864_x_at) / Fold change /veh SAMD14 (11745864_x_at) / RFU NPB (11741838_a_at) / Fold change /veh NPB (11741838_a_at) / RFU TMPRSS6 (11731388_a_at) / Fold change /veh TMPRSS6 (11731388_a_at) / RFU KRTAP10-2 (11738614_at) / Fold change /veh KRTAP10-2 (11738614_at) / RFU ARHGAP8 /// PRR5-ARHGAP8 (11727945_x_at) / Fold change /veh ARHGAP8 /// PRR5-ARHGAP8 (11727945_x_at) / RFU KRTAP5-7 /// NADSYN1 (11734609_at) / Fold change /veh KRTAP5-7 /// NADSYN1 (11734609_at) / RFU RASL12 (11751679_a_at) / Fold change /veh RASL12 (11751679_a_at) / RFU CDKN2B (11736163_a_at) / Fold change /veh CDKN2B (11736163_a_at) / RFU PRF1 (11729649_at) / Fold change /veh PRF1 (11729649_at) / RFU, ZNF638 /// ZNF638-IT1 / Fold change vs veh, ZNF638 /// ZNF638-IT1 / RFU, PANK3 / Fold change vs veh, PANK3 / RFU, SH3YL1 / Fold change vs veh, SH3YL1 / RFU, ZEB2 / Fold change vs veh, ZEB2 / RFU, NRIP1 / Fold change vs veh, NRIP1 / RFU, PTTG1IP / Fold change vs veh, PTTG1IP / RFU, CAPN2 / Fold change vs veh, CAPN2 / RFU, MED14 / Fold change vs veh, MED14 / RFU, SNORA58 / Fold change vs veh, SNORA58 / RFU, C1orf63 / Fold change vs veh, C1orf63 / RFU, LRRFIP1 / Fold change vs veh, LRRFIP1 / RFU, NDUFAF7 / Fold change vs veh, NDUFAF7 / RFU, SLC12A2 / Fold change vs veh, SLC12A2 / RFU, IBTK / Fold change vs veh, IBTK / RFU, ESF1 / Fold change vs veh, ESF1 / Fold change vs veh, TMEM50B / RFU, TAOK1 / Fold change vs veh, TAOK1 / RFU, ACBD3 / Fold change vs veh, ACBD3 / RFU, TMA16 / Fold change vs veh, TMA16 / RFU, RWDD3 / Fold change vs veh, RWDD3 / RFU, BCAT1 / Fold change vs veh, BCAT1 / RFU, EDEM3 / Fold change vs veh, EDEM3 / RFU, TMEM33 / Fold change vs veh, TMEM33 / RFU, WDR75 / Fold change vs veh, WDR75 / RFU, AHCTF1 / Fold change vs veh, AHCTF1 / RFU, TFRC / Fold change vs veh, TFRC / RFU, ZDHHC17 / Fold change vs veh, ZDHHC17 / RFU, NOM1 / Fold change vs veh, NOM1 / RFU, ARL8B / Fold change vs veh, ARL8B / RFU, ZBTB11 / Fold change vs veh, ZBTB11 / RFU, TAMM41 / Fold change vs veh, TAMM41 / RFU, KIAA1704 /// LOC100996395 / Fold change vs veh, KIAA1704 /// LOC100996395 / RFU, ING1 / Fold change vs veh, ING1 / RFU, TRMT61B / Fold change vs veh, TRMT61B / RFU, FUBP3 / Fold change vs veh, FUBP3 / RFU, TP53 / Fold change vs veh, TP53 / RFU, TNKS2 / Fold change vs veh, TNKS2 / RFU, ZFP14 / Fold change vs veh, ZFP14 / RFU, ACTR2 / Fold change vs veh, ACTR2 / RFU, PPP3R1 / Fold change vs veh, PPP3R1 / RFU, PIK3R1 / Fold change vs veh, PIK3R1 / RFU, HNRNPA1 / Fold change vs veh, HNRNPA1 / RFU, RNF170 / Fold change vs veh, RNF170 / RFU, ZNF28 / Fold change vs veh, ZNF28 / RFU, RNGTT / Fold change vs veh, RNGTT / RFU, OGT / Fold change vs veh, OGT / RFU, BRD1 / Fold change vs veh, BRD1 / RFU, MARS / Fold change vs veh, MARS / RFU, ZNF655 / Fold change vs veh, ZNF655 / RFU, FAHD1 / Fold change vs veh, FAHD1 / RFU, BDP1 / Fold change vs veh, BDP1 / RFU, LRRCC1 / Fold change vs veh, LRRCC1 / RFU, ARID1A / Fold change vs veh, ARID1A / RFU, ZNF146 / Fold change vs veh, ZNF146 / RFU, ZNF330 / Fold change vs veh, ZNF330 / RFU, GPN3 / Fold change vs veh, GPN3 / RFU, C9orf123 / Fold change vs veh, C9orf123 / RFU, N4BP2L2 / Fold change vs veh, N4BP2L2 / RFU, ARFIP1 / Fold change vs veh, ARFIP1 / RFU, FAM179B / Fold change vs veh, FAM179B / RFU, BCL10 / Fold change vs veh, BCL10 / RFU, UHRF1BP1L / Fold change vs veh, UHRF1BP1L / RFU, BET1 / Fold change vs veh, BET1 / RFU, CNOT2 / Fold change vs veh, CNOT2 / RFU, ZNF268 / Fold change vs veh, ZNF268 / Fold change vs veh, ZNF507 / RFU, DGCR2 / Fold change vs veh, DGCR2 / RFU, WDSUB1 / Fold change vs veh, WDSUB1 / Fold change vs veh, HSP90B1 /// MIR3652 / RFU, ADSS / Fold change vs veh, ADSS / RFU, GK / Fold change vs veh, GK / RFU, ZNF148 / Fold change vs veh, ZNF148 / RFU, TAF9 / Fold change vs veh, TAF9 / RFU, SLC1A5 / Fold change vs veh, SLC1A5 / RFU, SLMO2 / Fold change vs veh, SLMO2 / RFU, ABCC4 / Fold change vs veh, ABCC4 / RFU, LOC101060439 /// RAP1B / Fold change vs veh, LOC101060439 /// RAP1B / RFU, RFX7 / Fold change vs veh, RFX7 / RFU, GTPBP10 / Fold change vs veh, GTPBP10 / RFU, CNEP1R1 / Fold change vs veh, CNEP1R1 / RFU, BIVM-ERCC5 /// ERCC5 / Fold change vs veh, BIVM-ERCC5 /// ERCC5 / RFU, ILF3 / Fold change vs veh, ILF3 / RFU 11762660_at / Fold change /veh 11762660_at / RFU VCAN (11757783_s_at) / Fold change /veh VCAN (11757783_s_at) / RFU DDX43 (11728927_at) / Fold change /veh DDX43 (11728927_at) / RFU KRT8 (11758188_x_at) / Fold change /veh KRT8 (11758188_x_at) / RFU NKD1 (11759106_at) / Fold change /veh NKD1 (11759106_at) / RFU SRD5A1 (11742802_a_at) / Fold change /veh SRD5A1 (11742802_a_at) / RFU TPSAB1 /// TPSB2 (11721975_s_at) / Fold change /veh TPSAB1 /// TPSB2 (11721975_s_at) / RFU GSTM3 (11746129_a_at) / Fold change /veh GSTM3 (11746129_a_at) / RFU IL23R (11737362_x_at) / Fold change /veh IL23R (11737362_x_at) / RFU TMEM51 (11727254_a_at) / Fold change /veh TMEM51 (11727254_a_at) / RFU PIWIL2 (11732686_x_at) / Fold change /veh PIWIL2 (11732686_x_at) / RFU ORM1 (11744905_x_at) / Fold change /veh ORM1 (11744905_x_at) / RFU CCDC152 (11743942_at) / Fold change /veh CCDC152 (11743942_at) / RFU ECM1 (11717891_a_at) / Fold change /veh ECM1 (11717891_a_at) / RFU IL23R (11748794_a_at) / Fold change /veh IL23R (11748794_a_at) / RFU TNFAIP8L3 (11732012_x_at) / Fold change /veh TNFAIP8L3 (11732012_x_at) / RFU MBOAT4 (11741988_at) / Fold change /veh MBOAT4 (11741988_at) / RFU 11764193_at / Fold change /veh 11764193_at / RFU TMEM53 (11763286_at) / Fold change /veh TMEM53 (11763286_at) / RFU MAGEB2 (11727129_at) / Fold change /veh MAGEB2 (11727129_at) / RFU TMEM200A (11744735_a_at) / Fold change /veh TMEM200A (11744735_a_at) / RFU CCDC152 (11751479_a_at) / Fold change /veh CCDC152 (11751479_a_at) / RFU FAM211A (11726209_a_at) / Fold change /veh FAM211A (11726209_a_at) / RFU RGS16 (11746705_a_at) / Fold change /veh RGS16 (11746705_a_at) / RFU VCAN (11755009_s_at) / Fold change /veh VCAN (11755009_s_at) / RFU RHOB (11743442_s_at) / Fold change /veh RHOB (11743442_s_at) / RFU RGS16 (11720943_a_at) / Fold change /veh RGS16 (11720943_a_at) / RFU RGS16 (11720944_at) / Fold change /veh RGS16 (11720944_at) / RFU, VPS4B / Fold change vs veh, VPS4B / RFU, CREB1 / Fold change vs veh, CREB1 / RFU, DNAJC13 / Fold change vs veh, DNAJC13 / RFU, GNAQ / Fold change vs veh, GNAQ / RFU, CDK5R1 / Fold change vs veh, CDK5R1 / RFU, ZRANB3 / Fold change vs veh, ZRANB3 / RFU, CUL4A / Fold change vs veh, CUL4A / RFU, CCNY / Fold change vs veh, CCNY / RFU, UFL1 / Fold change vs veh, UFL1 / RFU, COG3 / Fold change vs veh, COG3 / RFU, DIAPH2 / Fold change vs veh, DIAPH2 / RFU, SKA2 / Fold change vs veh, SKA2 / RFU, AFF3 / Fold change vs veh, AFF3 / RFU, LMF1 / Fold change vs veh, LMF1 / RFU, IPO11 / Fold change vs veh, IPO11 / RFU, DFFB / Fold change vs veh, DFFB / RFU, FOXP1 / Fold change vs veh, FOXP1 / RFU, CARD8 / Fold change vs veh, CARD8 / RFU, STRN3 / Fold change vs veh, STRN3 / RFU, ADK / Fold change vs veh, ADK / RFU, RASSF2 / Fold change vs veh, RASSF2 / RFU, WIPF1 / Fold change vs veh, WIPF1 / RFU, LARP1B / Fold change vs veh, LARP1B / RFU, RASA1 / Fold change vs veh, RASA1 / RFU, RB1 / Fold change vs veh, RB1 / RFU, PPFIA1 / Fold change vs veh, PPFIA1 / RFU, MAT2A / Fold change vs veh, MAT2A / RFU, CCT5 / Fold change vs veh, CCT5 / RFU, WDR92 / Fold change vs veh, WDR92 / RFU, CUX1 / Fold change vs veh, CUX1 / RFU, TTC7A / Fold change vs veh, TTC7A / RFU, TMEM135 / Fold change vs veh, TMEM135 / RFU, DEPTOR / Fold change vs veh, DEPTOR / RFU, CPM / Fold change vs veh, CPM / RFU, DNAJB6 / Fold change vs veh, DNAJB6 / RFU, CACNA2D3 / Fold change vs veh, CACNA2D3 / RFU, DTX4 / Fold change vs veh, DTX4 / RFU, TFCP2 / Fold change vs veh, TFCP2 / RFU, GMCL1 /// GMCL1P1 / Fold change vs veh, GMCL1 /// GMCL1P1 / RFU, AEBP2 / Fold change vs veh, AEBP2 / RFU, SNHG1 /// SNORD22 /// SNORD25 /// SNORD26 /// SNORD27 /// SNORD28 /// SNORD29 /// SNORD31 / Fold change vs veh, SNHG1 /// SNORD22 /// SNORD25 /// SNORD26 /// SNORD27 /// SNORD28 /// SNORD29 /// SNORD31 / Fold change (Aza/veh), C12orf56 (ProbeSet 11735607_a_at) / Fold change (ACY-1035/veh), C12orf56 (ProbeSet 11735607_a_at) / Fold change (Aza/veh), FGFR1OP (ProbeSet 11751329_s_at) / Fold change (ACY-1035/veh), FGFR1OP (ProbeSet 11751329_s_at) / Fold change (Aza/veh), VPS36 (ProbeSet 11739960_a_at) / Fold change (ACY-1035/veh), VPS36 (ProbeSet 11739960_a_at) / RFU SYPL1 (11715823_x_at) / Fold change /veh SYPL1 (11715823_x_at) / RFU IGFBP7 (11715501_s_at) / Fold change /veh IGFBP7 (11715501_s_at) / RFU REEP3 (11722064_at) / Fold change /veh REEP3 (11722064_at) / RFU IGLL1 (11728026_x_at) / Fold change /veh IGLL1 (11728026_x_at): dose or concentration left out as unconfirmed
Conditions: ProbeSet 11725885_a_at; LIST B

Nc1ncn([C@@H]2O[C@H](CO)[C@@H](O)[C@H]2O)c(=O)n1 [azacitidine]
RFU, CNEP1R1: 65.19 RFU
